The values below come from publication PMC6199744, “Development of Chemical Proteomics for the Folateome and Analysis of the Kinetoplastid Folateome” (ACS Infectious Diseases, 2018).

Common to all, as to format: binding
The target of experiment [1] is T1, HeLa cell extract proteins (Homo sapiens, UniProt P23921).
T1 construct: endogenous in cells; host or cells: HeLa cell extract
T1 sequence (P23921 1-792): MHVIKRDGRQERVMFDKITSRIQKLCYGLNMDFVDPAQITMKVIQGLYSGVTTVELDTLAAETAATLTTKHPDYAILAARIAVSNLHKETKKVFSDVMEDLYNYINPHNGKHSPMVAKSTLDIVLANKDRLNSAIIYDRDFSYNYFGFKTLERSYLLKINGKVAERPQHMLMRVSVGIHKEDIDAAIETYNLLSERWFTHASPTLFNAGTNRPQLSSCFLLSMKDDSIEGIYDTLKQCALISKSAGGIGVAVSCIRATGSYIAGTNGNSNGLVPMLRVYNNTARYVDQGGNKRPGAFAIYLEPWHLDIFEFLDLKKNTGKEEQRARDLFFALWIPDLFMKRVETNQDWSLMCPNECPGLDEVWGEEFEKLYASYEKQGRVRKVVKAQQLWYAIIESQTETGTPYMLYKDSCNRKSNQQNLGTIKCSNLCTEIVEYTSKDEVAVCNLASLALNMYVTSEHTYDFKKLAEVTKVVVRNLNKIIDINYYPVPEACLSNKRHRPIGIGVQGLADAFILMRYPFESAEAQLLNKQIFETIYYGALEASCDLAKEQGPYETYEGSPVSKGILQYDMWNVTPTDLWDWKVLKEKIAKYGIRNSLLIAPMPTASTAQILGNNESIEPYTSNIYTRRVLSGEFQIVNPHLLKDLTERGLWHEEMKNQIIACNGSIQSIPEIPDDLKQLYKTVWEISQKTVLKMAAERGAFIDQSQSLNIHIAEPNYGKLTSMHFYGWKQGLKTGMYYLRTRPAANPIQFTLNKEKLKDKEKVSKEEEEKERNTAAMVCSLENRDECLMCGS

The target of experiment [2] is T2, HeLa cell extract proteins (Homo sapiens, UniProt O95714).
T2 construct: endogenous in cells; host or cells: HeLa cell extract

Experiment [3] deals with T3, HeLa cell extract proteins (Homo sapiens, UniProt P42356).
T3 construct: endogenous in cells; host or cells: HeLa cell extract
T3 sequence (P42356 whole entry): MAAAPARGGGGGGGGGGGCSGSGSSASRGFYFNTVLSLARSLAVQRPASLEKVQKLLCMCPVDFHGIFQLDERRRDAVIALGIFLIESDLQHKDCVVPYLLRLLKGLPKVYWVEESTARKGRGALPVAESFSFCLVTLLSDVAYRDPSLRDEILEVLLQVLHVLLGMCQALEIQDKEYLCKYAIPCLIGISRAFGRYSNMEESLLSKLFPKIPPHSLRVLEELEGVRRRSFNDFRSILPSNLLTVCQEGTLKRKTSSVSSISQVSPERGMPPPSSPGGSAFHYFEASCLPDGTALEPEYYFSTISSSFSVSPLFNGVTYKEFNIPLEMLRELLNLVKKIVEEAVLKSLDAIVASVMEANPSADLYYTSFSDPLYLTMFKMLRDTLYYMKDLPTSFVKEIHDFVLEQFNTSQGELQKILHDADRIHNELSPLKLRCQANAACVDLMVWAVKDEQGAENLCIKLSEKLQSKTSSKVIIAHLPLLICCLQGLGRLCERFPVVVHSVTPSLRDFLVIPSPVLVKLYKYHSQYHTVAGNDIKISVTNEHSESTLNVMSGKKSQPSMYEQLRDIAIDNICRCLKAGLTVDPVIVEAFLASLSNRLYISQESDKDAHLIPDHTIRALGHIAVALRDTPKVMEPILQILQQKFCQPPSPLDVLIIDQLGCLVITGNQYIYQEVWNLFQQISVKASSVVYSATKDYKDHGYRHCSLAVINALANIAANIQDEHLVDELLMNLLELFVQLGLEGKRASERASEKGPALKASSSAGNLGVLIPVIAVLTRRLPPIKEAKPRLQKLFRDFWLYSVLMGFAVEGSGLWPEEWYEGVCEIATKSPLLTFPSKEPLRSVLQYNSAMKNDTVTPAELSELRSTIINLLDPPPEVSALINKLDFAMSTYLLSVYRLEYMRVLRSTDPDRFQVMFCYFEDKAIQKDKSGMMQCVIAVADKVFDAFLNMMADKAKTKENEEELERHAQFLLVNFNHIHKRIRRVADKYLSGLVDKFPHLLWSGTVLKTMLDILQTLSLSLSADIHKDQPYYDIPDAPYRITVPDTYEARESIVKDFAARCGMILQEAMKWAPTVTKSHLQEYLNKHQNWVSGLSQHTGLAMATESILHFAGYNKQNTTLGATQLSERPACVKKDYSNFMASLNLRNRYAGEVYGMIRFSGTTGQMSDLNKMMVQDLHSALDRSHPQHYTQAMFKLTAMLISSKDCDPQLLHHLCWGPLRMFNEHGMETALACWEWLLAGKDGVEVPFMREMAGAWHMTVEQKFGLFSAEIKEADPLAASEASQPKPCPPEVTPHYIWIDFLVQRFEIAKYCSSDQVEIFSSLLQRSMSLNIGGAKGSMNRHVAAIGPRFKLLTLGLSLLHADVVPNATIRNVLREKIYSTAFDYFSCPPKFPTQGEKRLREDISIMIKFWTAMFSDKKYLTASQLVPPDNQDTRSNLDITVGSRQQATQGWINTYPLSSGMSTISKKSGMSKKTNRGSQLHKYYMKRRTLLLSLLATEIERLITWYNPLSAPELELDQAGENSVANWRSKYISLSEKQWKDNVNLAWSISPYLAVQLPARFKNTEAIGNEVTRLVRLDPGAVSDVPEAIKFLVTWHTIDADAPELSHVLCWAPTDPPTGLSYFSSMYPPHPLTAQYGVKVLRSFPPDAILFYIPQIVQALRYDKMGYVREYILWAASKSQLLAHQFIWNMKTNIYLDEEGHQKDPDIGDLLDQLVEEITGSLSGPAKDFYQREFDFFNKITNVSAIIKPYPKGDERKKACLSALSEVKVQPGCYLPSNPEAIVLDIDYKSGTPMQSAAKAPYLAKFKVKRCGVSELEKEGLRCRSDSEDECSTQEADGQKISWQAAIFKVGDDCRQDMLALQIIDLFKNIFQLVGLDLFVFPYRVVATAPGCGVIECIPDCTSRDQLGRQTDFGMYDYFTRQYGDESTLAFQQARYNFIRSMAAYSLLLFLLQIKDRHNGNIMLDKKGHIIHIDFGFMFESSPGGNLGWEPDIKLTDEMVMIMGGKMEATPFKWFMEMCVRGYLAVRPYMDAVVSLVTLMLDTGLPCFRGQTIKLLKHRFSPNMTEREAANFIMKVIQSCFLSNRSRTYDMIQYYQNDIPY

The target in experiment [4] is T4, HeLa cell extract proteins (Homo sapiens, UniProt P37802).
T4 construct: endogenous in cells; host or cells: HeLa cell extract
T4 sequence (P37802 whole entry): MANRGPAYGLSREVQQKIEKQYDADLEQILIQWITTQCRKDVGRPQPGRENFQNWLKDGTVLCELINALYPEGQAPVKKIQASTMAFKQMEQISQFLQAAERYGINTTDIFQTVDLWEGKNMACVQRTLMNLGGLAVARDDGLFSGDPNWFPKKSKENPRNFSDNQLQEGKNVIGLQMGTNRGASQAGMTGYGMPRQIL

Experiment [5] addresses T5, HeLa cell extract proteins (Homo sapiens, UniProt Q9Y5L0).
T5 construct: endogenous in cells; host or cells: HeLa cell extract
T5 sequence (Q9Y5L0 1-923): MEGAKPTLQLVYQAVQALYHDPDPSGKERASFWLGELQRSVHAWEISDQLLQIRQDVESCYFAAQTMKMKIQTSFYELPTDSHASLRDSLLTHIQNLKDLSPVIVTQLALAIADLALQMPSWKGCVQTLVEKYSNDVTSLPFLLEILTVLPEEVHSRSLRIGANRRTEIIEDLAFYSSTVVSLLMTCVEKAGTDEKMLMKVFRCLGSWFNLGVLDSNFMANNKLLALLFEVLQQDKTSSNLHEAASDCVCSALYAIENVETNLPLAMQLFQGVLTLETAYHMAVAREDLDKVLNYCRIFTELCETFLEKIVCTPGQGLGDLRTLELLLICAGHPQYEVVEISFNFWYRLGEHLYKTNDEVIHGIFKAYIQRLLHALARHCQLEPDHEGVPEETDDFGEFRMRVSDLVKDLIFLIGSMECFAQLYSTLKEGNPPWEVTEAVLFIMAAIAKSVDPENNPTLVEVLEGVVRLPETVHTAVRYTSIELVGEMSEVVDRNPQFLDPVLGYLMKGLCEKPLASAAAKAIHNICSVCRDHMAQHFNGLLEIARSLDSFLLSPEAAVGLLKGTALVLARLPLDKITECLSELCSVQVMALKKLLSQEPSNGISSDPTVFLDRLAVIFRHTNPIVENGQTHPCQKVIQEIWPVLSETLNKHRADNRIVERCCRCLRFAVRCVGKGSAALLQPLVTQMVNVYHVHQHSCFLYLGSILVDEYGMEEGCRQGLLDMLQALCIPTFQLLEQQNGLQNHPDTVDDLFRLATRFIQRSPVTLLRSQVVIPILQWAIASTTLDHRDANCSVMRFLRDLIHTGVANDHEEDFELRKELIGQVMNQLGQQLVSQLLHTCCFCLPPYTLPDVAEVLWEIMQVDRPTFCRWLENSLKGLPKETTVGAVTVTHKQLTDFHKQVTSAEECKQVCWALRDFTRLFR

In experiment [6] the target is T6, HeLa cell extract proteins (Homo sapiens, UniProt P57740).
T6 construct: endogenous in cells; host or cells: HeLa cell extract
T6 sequence (P57740 1-925): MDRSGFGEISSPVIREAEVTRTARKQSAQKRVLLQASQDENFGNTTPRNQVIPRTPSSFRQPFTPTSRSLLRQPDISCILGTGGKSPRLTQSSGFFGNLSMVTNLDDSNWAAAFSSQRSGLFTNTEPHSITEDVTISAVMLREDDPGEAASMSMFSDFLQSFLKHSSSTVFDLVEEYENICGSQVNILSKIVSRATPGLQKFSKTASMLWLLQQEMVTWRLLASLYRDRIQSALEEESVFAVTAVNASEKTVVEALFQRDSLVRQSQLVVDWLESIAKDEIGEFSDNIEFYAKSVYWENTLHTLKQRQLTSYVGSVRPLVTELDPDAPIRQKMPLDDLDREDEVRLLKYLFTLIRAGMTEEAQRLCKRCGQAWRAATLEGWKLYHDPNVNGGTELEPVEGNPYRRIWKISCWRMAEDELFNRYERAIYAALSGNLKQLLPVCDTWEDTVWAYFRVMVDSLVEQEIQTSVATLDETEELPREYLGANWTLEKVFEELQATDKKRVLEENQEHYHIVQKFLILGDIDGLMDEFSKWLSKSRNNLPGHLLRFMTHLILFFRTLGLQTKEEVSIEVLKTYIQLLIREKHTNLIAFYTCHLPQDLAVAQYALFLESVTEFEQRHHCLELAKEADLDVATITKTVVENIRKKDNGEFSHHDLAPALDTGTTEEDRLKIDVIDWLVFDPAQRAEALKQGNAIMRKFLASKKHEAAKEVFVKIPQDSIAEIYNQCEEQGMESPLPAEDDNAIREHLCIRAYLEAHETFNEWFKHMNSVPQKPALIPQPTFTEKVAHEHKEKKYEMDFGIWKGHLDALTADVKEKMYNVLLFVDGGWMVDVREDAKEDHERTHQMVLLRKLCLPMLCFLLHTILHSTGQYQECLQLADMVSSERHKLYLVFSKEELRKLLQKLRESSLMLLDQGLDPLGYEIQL

In experiment [7] the target is T7, HeLa cell extract proteins (Homo sapiens, UniProt Q9H0N5).
T7 construct: endogenous in cells; host or cells: HeLa cell extract
T7 sequence (Q9H0N5 whole entry): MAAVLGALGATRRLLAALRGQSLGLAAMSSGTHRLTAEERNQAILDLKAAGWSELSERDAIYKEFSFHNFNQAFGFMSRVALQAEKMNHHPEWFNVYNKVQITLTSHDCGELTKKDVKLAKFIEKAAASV

Experiment [8] has as its target T8, HeLa cell extract proteins (Homo sapiens, UniProt Q13200).
T8 construct: endogenous in cells; host or cells: HeLa cell extract

Like-named read-outs stand apart in the source and are kept apart here.

T8 sequence (Q13200 whole entry): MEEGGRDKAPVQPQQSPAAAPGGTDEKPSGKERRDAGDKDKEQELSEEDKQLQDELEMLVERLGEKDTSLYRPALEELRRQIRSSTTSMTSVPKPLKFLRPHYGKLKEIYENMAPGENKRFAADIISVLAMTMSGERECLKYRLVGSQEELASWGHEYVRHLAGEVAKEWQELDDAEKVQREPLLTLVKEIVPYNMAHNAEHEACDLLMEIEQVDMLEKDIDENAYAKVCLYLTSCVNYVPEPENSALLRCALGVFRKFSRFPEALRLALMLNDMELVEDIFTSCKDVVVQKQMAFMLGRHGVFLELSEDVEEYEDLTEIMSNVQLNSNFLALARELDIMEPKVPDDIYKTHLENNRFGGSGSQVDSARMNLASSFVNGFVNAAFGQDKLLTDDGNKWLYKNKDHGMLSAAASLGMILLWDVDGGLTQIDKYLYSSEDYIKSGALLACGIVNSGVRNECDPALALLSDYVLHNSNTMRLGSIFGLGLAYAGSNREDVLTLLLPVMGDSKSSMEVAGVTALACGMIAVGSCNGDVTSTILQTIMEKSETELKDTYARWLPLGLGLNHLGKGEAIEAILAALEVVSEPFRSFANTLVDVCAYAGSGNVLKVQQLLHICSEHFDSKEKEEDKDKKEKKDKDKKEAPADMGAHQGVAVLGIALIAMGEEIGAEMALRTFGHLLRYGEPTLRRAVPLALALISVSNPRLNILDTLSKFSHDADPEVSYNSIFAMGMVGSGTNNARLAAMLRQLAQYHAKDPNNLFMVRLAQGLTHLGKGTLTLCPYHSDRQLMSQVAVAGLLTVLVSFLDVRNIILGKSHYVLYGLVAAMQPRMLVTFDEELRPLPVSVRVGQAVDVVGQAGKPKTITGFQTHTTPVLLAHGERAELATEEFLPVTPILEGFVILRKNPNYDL

Turning to `CCCCCCOc1cccc(Cc2cnc(N)nc2N)c1` [compound 2], the “fold changes relative to vehicle control” value in experiment [1] (protein RRM1, HeLa) is given as 1.29; in experiment [2] (protein HERC2, HeLa), 0.83; in experiment [3] (captured protein PI4KA, HeLa), 1.14; in experiment [4] (protein TAGLN2, HeLa), 1.66; in experiment [5] (HeLa, protein TNPO3), 0.9; in experiment [6] (HeLa, protein NUP107) it was 1.03. Further, the “fold changes relative to vehicle control” value turned out to be 0.77 in experiment [7] (captured protein PCBD2, HeLa) and 1.41 in experiment [8] (protein PSMD2, HeLa).

On to `NCCOCCOCC(=O)Nc1nc2ncc(CNc3ccc(C(=O)NC(CCC(=O)O)C(=O)O)cc3)nc2c(=O)[nH]1` (centres unmarked) [compound 6], for which the “fold changes relative to vehicle control” value in experiment [1] (HeLa, protein RRM1) is 1.06; in experiment [2] (protein HERC2, HeLa), 1.07; in experiment [3] (protein PI4KA, HeLa) it was 0.94; in experiment [4] (HeLa, protein TAGLN2), 1.2; in experiment [5] (HeLa, captured protein TNPO3), 1.04; in experiment [6] (HeLa, protein NUP107), 1.18. Besides, the “fold changes relative to vehicle control” value in experiment [7] (HeLa, captured protein PCBD2) is listed as 1.02; in experiment [8] (protein PSMD2, HeLa), 1.01.

Take `CCCCCCOc1ccc(Cc2cnc(N)nc2N)cc1` [compound 1]: the “fold changes relative to vehicle control” value is listed as 1.05 in experiment [1] (protein RRM1, HeLa); 1 in experiment [2] (protein HERC2, HeLa); 0.71 in experiment [3] (captured protein PI4KA, HeLa); 1.17 in experiment [4] (protein TAGLN2, HeLa); 0.93 in experiment [5] (HeLa, protein TNPO3); 0.98 in experiment [6] (HeLa, protein NUP107). In addition, the “fold changes relative to vehicle control” value in experiment [7] (captured protein PCBD2, HeLa) stood at 0.88; in experiment [8] (protein PSMD2, HeLa), 0.98.

For `Nc1nc2c(c(=O)[nH]1)N(C=O)C(CNc1ccc(C(=O)N[C@@H](CCC(=O)O)C(=O)O)cc1)CN2` (some centres unmarked) [LEU, leucovorin], the “fold changes relative to vehicle control” value in experiment [1] (HeLa, protein RRM1) is reported as 0.99; in experiment [2] (protein HERC2, HeLa), 1.09; in experiment [3] (protein PI4KA, HeLa) it was 0.82; in experiment [4] (HeLa, protein TAGLN2) it was 0.97; in experiment [5] (HeLa, captured protein TNPO3), 0.95; in experiment [6] (HeLa, protein NUP107), 1.01. Besides, the “fold changes relative to vehicle control” value in experiment [7] (HeLa, captured protein PCBD2) stood at 1.14; in experiment [8] (protein PSMD2, HeLa) it was 0.84.

In the case of `NCCCNc1ccc(C(=O)NC(CCC(=O)O)C(=O)O)cc1` (centres unmarked) [compound 7], the “fold changes relative to vehicle control” value was found to be 0.96 in experiment [1] (HeLa, protein RRM1); 1.09 in experiment [2] (protein HERC2, HeLa); 1.02 in experiment [3] (protein PI4KA, HeLa); 0.92 in experiment [4] (HeLa, protein TAGLN2); 0.96 in experiment [5] (HeLa, captured protein TNPO3); 1.26 in experiment [6] (HeLa, protein NUP107). Further, the “fold changes relative to vehicle control” value in experiment [7] (HeLa, captured protein PCBD2) is reported as 1.14; in experiment [8] (protein PSMD2, HeLa), 0.99.

In the case of `Nc1nc2[nH]cc(CCc3ccc(C(=O)N[C@@H](CCC(=O)O)C(=O)O)cc3)c2c(=O)[nH]1` [PTX, pemetrexed], the “fold changes relative to vehicle control” value came out at 1.05 in experiment [1]; 1 in experiment [2]; 0.73 in experiment [3]; 1.18 in experiment [4]; 0.96 in experiment [5]; 0.98 in experiment [6]. Also, the results for the “fold changes relative to vehicle control” value in experiment [7] and in experiment [8] were 0.99 and 0.83, respectively.

With `Nc1nc2cccc(-c3ccccc3)c2n1Cc1ccc(Cl)c(Cl)c1` [compound 3], the “fold changes relative to vehicle control” value in experiment [1] (protein RRM1, HeLa) turned out to be 0.89; in experiment [2] (protein HERC2, HeLa), 1.08; in experiment [3] (captured protein PI4KA, HeLa), 0.77; in experiment [4] (protein TAGLN2, HeLa), 0.85; in experiment [5] (HeLa, protein TNPO3), 1.01; in experiment [6] (HeLa, protein NUP107), 1.07. In addition, the “fold changes relative to vehicle control” value in experiment [7] (captured protein PCBD2, HeLa) came to 1; in experiment [8] (protein PSMD2, HeLa) it was 1.01.
